The test concerns HCT 116 cell line. Nature of the test: Cell inhibition assay (WST-1 proliferation), HCT-116. Format: cell-based. The following applies: Homo sapiens, 72 hrs incubation, read-out: Inhibitor Activity vs HCT 116 cell line. As for the experimental part:
Cells were seeded in 96W tissue culture plates (1 well=30 mm^2) in 50 μl of the appropriate culture medium (see below). Seeding densities were cell-line dependent: HCT-116=1000 cells per well, Hut-78=2250 cells per well, U937 cells=2000 cells per well. 24 hrs later 50 μL of the compound prepared in the same medium was added as 4 fold dilutions to give final concentrations in the range 0.15 nM-2500 nM (n=6 for each concentration). The plates were then incubated at 37° C., 5% CO2 for 72 hrs. Cell proliferation was assessed using WST-1 (a metabolic indicator dye, Roche Cat no. 1 644 807) according to the manufacturers instructions. The results were calculated as percentage of vehicle response and IC50 values represent the concentration of compound that inhibited the vehicle response by 50%.
HCT-116 Culture Medium—Dulbeccos MEM (Sigma D6546) plus 10% heat inactivated fetal calf serum (Hyclone SH30071 Thermo Fischer Scientific) containing 2 mM Glutamine (Sigma cat no G-7513) and 50 U/mL Penicillin and Streptomycin Sulphate (Sigma Cat no P-0781).

Structures are written as SMILES.

For the compound `CC[C@@H]1C(=O)N(C)c2cnc(Nc3ccc(C(=O)NC4CCN(CC[C@](C)(N)C(=O)OC)CC4)cc3OC)nc2N1C1CCCC1` [Example 1, Methyl 4-{4-[(4-{[(7R)-8-cyclopentyl-7-ethyl-5-methyl-6-oxo-5,6,7,8-tetrahydropteridin-2-yl]amino}-3-methoxybenzoyl)amino]piperidin-1-yl}isovalinate], the IC50 lay within 100 to 500 nM.

Source of the values: patent US20110190306A1, “Inhibitors of PLK” (CHROMA THERAPEUTICS LTD., priority 2008, published 2011).
